Assay results as given in US20220177508A1, “C10-Cyclic Substituted 13-Membered Macrolides and Uses Thereof” (Zikani Therapeutics, Inc., priority 2018, published 2022).
≈ marks a conversion by molar mass, not a printed value.

Tests used:
Format in all cases: cell-based
[1] = tested on: S. aureus MP-12; experiment: Broth dilution MIC determination (CLSI), S. aureus MP-12; conditions: Staphylococcus aureus, MP12; strain MP-12, broth dilution
[2] = tested on: E. coli MP-4; experiment: Broth dilution MIC determination (CLSI), E. coli MP-4; conditions: Escherichia coli, MP4; strain MP-4, broth dilution; read-out: MIC E. coli MP-4
[3] = tested on: K. pneumoniae MP-546; experiment: Broth dilution MIC determination (CLSI), K. pneumoniae MP-546; conditions: Klebsiella pneumoniae, MP546; strain MP-546, broth dilution
[4] = tested on: P. aeruginosa MP-3; experiment: Broth dilution MIC determination (CLSI), P. aeruginosa MP-3; conditions: Pseudomonas aeruginosa, MP3; strain MP-3, broth dilution
[5] = tested on: A. baumannii MP-15; experiment: Broth dilution MIC determination (CLSI), A. baumannii MP-15; conditions: Acinetobacter baumannii, MP15; strain MP-15, broth dilution; read-out: MIC A. baumanii MP-15

Row | SMILES | MIC [1] | MIC [2] | MIC [3] | MIC [4] | MIC [5]
1 | CO[C@]1(C)C[C@@H](C)CN(C)[C@H](C2CN(CC(C)C)C2)COC(=O)C(C)(C)C(=O)[C@H](C)[C@H]1O[C@@H]1O[C@H](C)C[C@H](N(C)C)[C@H]1O [Compound 112] | 4 to 32 µg/mL (≈ 6.54 to 52.3 µM) | < 4 µg/mL | < 4 µg/mL | > 32 µg/mL | 4 to 32 µg/mL (≈ 6.54 to 52.3 µM)
2 | CO[C@]1(C)C[C@@H](C)CN(C)[C@H]([C@@H]2CCCN(C)C2)COC(=O)C(C)(C)C(=O)[C@H](C)[C@H]1O[C@@H]1O[C@H](C)C[C@H](N(C)C)[C@H]1O [Compound 113, (3R,6R,8R,9R,10R)-9-(((2S,3R,4S,6R)-4-(dimethylamino)-3-hydroxy-6-methyltetrahydro-2H-pyran-2-yl)oxy)-8-methoxy-4,6,8,10,12,12-hexamethyl-3-((R)-1-methylpiperidin-3-yl)-1-oxa-4-azacyclotridecane-11,13-dione] | > 32 µg/mL | 4 to 32 µg/mL (≈ 6.69 to 53.5 µM) | > 32 µg/mL | > 32 µg/mL | > 32 µg/mL
3 | CO[C@]1(C)C[C@@H](C)CN(C)[C@@H](C2CCN(C(C)C)CC2)COC(=O)C(C)(C)C(=O)[C@H](C)[C@H]1O[C@@H]1O[C@H](C)C[C@H](N(C)C)[C@H]1O [Compound 116, (3S,6R,8R,9R,10R)-9-(((2S,3R,4S,6R)-4-(dimethylamino)-3-hydroxy-6-methyltetrahydro-2H-pyran-2-yl)oxy)-3-(1-isopropylpiperidin-4-yl)-8-methoxy-4,6,8,10,12,12-hexamethyl-1-oxa-4-azacyclotridecane-11,13-dione] | 4 to 32 µg/mL (≈ 6.39 to 51.1 µM) | < 4 µg/mL | < 4 µg/mL | > 32 µg/mL | > 32 µg/mL
4 | CCN1CCC[C@@H]([C@@H]2COC(=O)C(C)(C)C(=O)[C@H](C)[C@@H](O[C@@H]3O[C@H](C)C[C@H](N(C)C)[C@H]3O)[C@](C)(OC)C[C@@H](C)CN2C)C1 [Compound 117, (3R,6R,8R,9R,10R)-9-(((2S,3R,4S,6R)-4-(dimethylamino)-3-hydroxy-6-methyltetrahydro-2H-pyran-2-yl)oxy)-3-((R)-1-ethylpiperidin-3-yl)-8-methoxy-4,6,8,10,12,12-hexamethyl-1-oxa-4-azacyclotridecane-11,13-dione] | > 32 µg/mL | 4 to 32 µg/mL (≈ 6.54 to 52.3 µM) | 4 to 32 µg/mL (≈ 6.54 to 52.3 µM) | > 32 µg/mL | > 32 µg/mL
5 | CO[C@]1(C)C[C@@H](C)CN(C(=O)OCc2ccccc2)[C@H](C2CCN(C(C)C)CC2)COC(=O)C(C)(C)C(=O)[C@H](C)[C@H]1O[C@@H]1O[C@H](C)C[C@H](N(C)C)[C@H]1O [Compound 118, Benzyl (3R,6R,8R,9R,10R)-9-(((2S,3R,4S,6R)-4-(dimethylamino)-3-hydroxy-6-methyltetrahydro-2H-pyran-2-yl)oxy)-3-(1-isopropylpiperidin-4-yl)-8-methoxy-6,8,10,12,12-pentamethyl-11,13-dioxo-1-oxa-4-azacyclotridecane-4-carboxylate] | > 32 µg/mL | > 32 µg/mL | > 32 µg/mL | > 32 µg/mL | > 32 µg/mL
6 | CO[C@]1(C)C[C@@H](C)CN(C)[C@H](C2CCN(CC(C)C)CC2)COC(=O)C(C)(C)C(=O)[C@H](C)[C@H]1O[C@@H]1O[C@H](C)C[C@H](N(C)C)[C@H]1O [Compound 121, (3R,6R,8R,9R,10R)-9-(((2S,3R,4S,6R)-4-(dimethylamino)-3-hydroxy-6-methyltetrahydro-2H-pyran-2-yl)oxy)-3-(1-isobutylpiperidin-4-yl)-8-methoxy-4,6,8,10,12,12-hexamethyl-1-oxa-4-azacyclotridecane-11,13-dione] | 4 to 32 µg/mL (≈ 6.25 to 50 µM) | < 4 µg/mL | < 4 µg/mL | > 32 µg/mL | > 32 µg/mL
7 | CO[C@]1(C)C[C@@H](C)CN(C)[C@H]([C@@H]2CCN(CC(C)C)C2)COC(=O)C(C)(C)C(=O)[C@H](C)[C@H]1O[C@@H]1O[C@H](C)C[C@H](N(C)C)[C@H]1O [Compound 123, (3R,6R,8R,9R,10R)-9-(((2S,3R,4S,6R)-4-(dimethylamino)-3-hydroxy-6-methyltetrahydro-2H-pyran-2-yl)oxy)-3-((R)-1-isobutylpyrrolidin-3-yl)-8-methoxy-4,6,8,10,12,12-hexamethyl-1-oxa-4-azacyclotridecane-11,13-dione] | 4 to 32 µg/mL (≈ 6.39 to 51.1 µM) | < 4 µg/mL | 4 to 32 µg/mL (≈ 6.39 to 51.1 µM) | > 32 µg/mL | > 32 µg/mL
8 | CO[C@]1(C)C[C@@H](C)CN(C)[C@H](C2CC3CCC(C2)N3C)COC(=O)C(C)(C)C(=O)[C@H](C)[C@H]1O[C@@H]1O[C@H](C)C[C@H](N(C)C)[C@H]1O (stereo partly drawn) [Compound 129, (3R,6R,8R,9R,10R)-9-(((2S,3R,4S,6R)-4-(dimethylamino)-3-hydroxy-6-methyltetrahydro-2H-pyran-2-yl)oxy)-8-methoxy-4,6,8,10,12,12-hexamethyl-3-(8-methyl-8-azabicyclo[3.2.1]octan-3-yl)-1-oxa-4-azacyclotridecane-11,13-dione] | > 32 µg/mL | < 4 µg/mL | 4 to 32 µg/mL (≈ 6.41 to 51.3 µM) | > 32 µg/mL | > 32 µg/mL
9 | CO[C@]1(C)C[C@@H](C)CN(C)[C@H](C2CCN(C)CC2)[C@H](C)OC(=O)C(C)(C)C(=O)[C@H](C)[C@H]1O[C@@H]1O[C@H](C)C[C@H](N(C)C)[C@H]1O [Compound 130, (2S,3R,6R,8R,9R,10R)-9-(((2S,3R,4S,6R)-4-(dimethylamino)-3-hydroxy-6-methyltetrahydro-2H-pyran-2-yl)oxy)-8-methoxy-2,4,6,8,10,12,12-heptamethyl-3-(1-methylpiperidin-4-yl)-1-oxa-4-azacyclotridecane-11,13-dione] | > 32 µg/mL | 4 to 32 µg/mL (≈ 6.54 to 52.3 µM) | > 32 µg/mL | > 32 µg/mL | > 32 µg/mL
10 | CO[C@]1(C)C[C@@H](C)CN(C)[C@H](c2ccc(B(O)O)cc2)COC(=O)C(C)(C)C(=O)[C@H](C)[C@H]1O[C@@H]1O[C@H](C)C[C@H](N(C)C)[C@H]1O [Compound 133, (4-((3R,6R,8R,9R,10R)-9-(((2S,3R,4S,6R)-4-(Dimethylamino)-3-hydroxy-6-methyltetrahydro-2H-pyran-2-yl)oxy)-8-methoxy-4,6,8,10,12,12-hexamethyl-11,13-dioxo-1-oxa-4-azacyclotridecan-3-yl)phenyl)boronic acid] | > 32 µg/mL | 4 to 32 µg/mL (≈ 6.45 to 51.6 µM) | > 32 µg/mL | > 32 µg/mL | > 32 µg/mL
11 | CO[C@]1(C)C[C@@H](C)CN(C)[C@H](C2CNC2)COC(=O)C(C)(C)C(=O)[C@H](C)[C@H]1O[C@@H]1O[C@H](C)C[C@H](N(C)C)[C@H]1O [Compound 134, (3R,6R,8R,9R,10R)-3-(azetidin-3-yl)-9-(((2S,3R,4S,6R)-4-(dimethylamino)-3-hydroxy-6-methyltetrahydro-2H-pyran-2-yl)oxy)-8-methoxy-4,6,8,10,12,12-hexamethyl-1-oxa-4-azacyclotridecane-11,13-dione] | > 32 µg/mL | < 4 µg/mL | 4 to 32 µg/mL (≈ 7.2 to 57.6 µM) | > 32 µg/mL | > 32 µg/mL
12 | CO[C@]1(C)C[C@@H](C)CN(C)[C@@H]([C@H]2CC[C@H](N(C)C)CC2)COC(=O)C(C)(C)C(=O)[C@H](C)[C@H]1O[C@@H]1O[C@H](C)C[C@H](N(C)C)[C@H]1O [Compound 137, (3S,6R,8R,9R,10R)-9-(((2S,3R,4S,6R)-4-(dimethylamino)-3-hydroxy-6-methyltetrahydro-2H-pyran-2-yl)oxy)-3-((1r,4S)-4-(dimethylamino)cyclohexyl)-8-methoxy-4,6,8,10,12,12-hexamethyl-1-oxa-4-azacyclotridecane-11,13-dione] | > 32 µg/mL | 4 to 32 µg/mL (≈ 6.39 to 51.1 µM) | 4 to 32 µg/mL (≈ 6.39 to 51.1 µM) | > 32 µg/mL | > 32 µg/mL
13 | CO[C@]1(C)C[C@@H](C)CN(C)[C@@H]([C@H]2CCN(C(C)=O)C2)COC(=O)C(C)(C)C(=O)[C@H](C)[C@H]1O[C@@H]1O[C@H](C)C[C@H](N(C)C)[C@H]1O [Compound 140, (3S,6R,8R,9R,10R)-3-((S)-1-acetylpyrrolidin-3-yl)-9-(((2S,3R,4S,6R)-4-(dimethylamino)-3-hydroxy-6-methyltetrahydro-2H-pyran-2-yl)oxy)-8-methoxy-4,6,8,10,12,12-hexamethyl-1-oxa-4-azacyclotridecane-11,13-dione] | > 32 µg/mL | 4 to 32 µg/mL (≈ 6.54 to 52.3 µM) | > 32 µg/mL | > 32 µg/mL | > 32 µg/mL
14 | CO[C@]1(C)C[C@@H](C)CN(C)[C@H](C2CCN(S(C)(=O)=O)CC2)COC(=O)C(C)(C)C(=O)[C@H](C)[C@H]1O[C@@H]1O[C@H](C)C[C@H](N(C)C)[C@H]1O [Compound 142, (3R,6R,8R,9R,10R)-9-(((2S,3R,4S,6R)-4-(dimethylamino)-3-hydroxy-6-methyltetrahydro-2H-pyran-2-yl)oxy)-8-methoxy-4,6,8,10,12,12-hexamethyl-3-(1-(methylsulfonyl)piperidin-4-yl)-1-oxa-4-azacyclotridecane-11,13-dione] | 4 to 32 µg/mL (≈ 6.04 to 48.3 µM) | 4 to 32 µg/mL (≈ 6.04 to 48.3 µM) | 4 to 32 µg/mL (≈ 6.04 to 48.3 µM) | > 32 µg/mL | > 32 µg/mL
15 | CO[C@]1(C)C[C@@H](C)CN(C)[C@H](C2CCN(C(C)C)CC2)[C@H](C)OC(=O)C(C)(C)C(=O)[C@H](C)[C@H]1O[C@@H]1O[C@H](C)C[C@H](N(C)C)[C@H]1O [Compound 147, (2S,3R,6R,8R,9R,10R)-9-(((2S,3R,4S,6R)-4-(dimethylamino)-3-hydroxy-6-methyltetrahydro-2H-pyran-2-yl)oxy)-3-(1-isopropylpiperidin-4-yl)-8-methoxy-2,4,6,8,10,12,12-heptamethyl-1-oxa-4-azacyclotridecane-11,13-dione] | > 32 µg/mL | 4 to 32 µg/mL (≈ 6.25 to 50 µM) | 4 to 32 µg/mL (≈ 6.25 to 50 µM) | > 32 µg/mL | > 32 µg/mL
